Assay: Powder flowability (flow factor FFc), FT4 powder rheometer
Format: physicochemical
Settings: Compound 1 alone
Method: For the simulation of the DG process, compression pressure was adjusted to produce ribbon of different porosity. The flowability and compressibility of either preblend or milled ribbon was measured to evaluate the manufacturability of each formulation on the DC and the DG processes. The peak force value of compression and the vertical projection area of tooling were used to calculate the maximum compression pressure (CP). Powder flowability (i.e., flow factor (FFc)) was measured using the FT4 powder rheometer with the characterization method of 3 kPa pre-consolidation and 10 ml filling volume (Freeman Technology, Tewkesbury UK). This method was applied because it was representative of powder flow scenarios in most pharmaceutical manufacturing processes. The true density of powder was measured using the AccuPyc 1340 pycnometer (Micrometrics, Norcross Ga. USA) to calculate porosity of the ribbon.

Structure (SMILES): Cc1[nH]ncc1-c1cc2nc([C@@H]3CC4CCN3CC4)[nH]c(=O)c2s1 [Compound 1, 2-[(2S)-1-azabicyclo[2.2.2]oct-2-yl]-6-(3-methyl-1H-pyrazol-4-yl)thieno[3,2-d]pyrimidin-4(3H)-one]
- flow factor: about 2.3
